“Also recorded” adds a separate entry of the source.
How the values were obtained:
[1] = system: human peripheral blood mononuclear cells (PBMC); assay: B-cell assay with stimulated PBMCs from healthy donors; type: cell-based; conditions: for cell viability (live CD19+ B cells, flow cytometry) / stimulation‐induced B cell maturation (CD27+IgD− memory B cells of live CD19+ B cells): 6 days of culture; for IgG secretion: stimulated PBMCs from healthy human blood donors, 6 days, dose-dependent; for stimulation‐induced B cell maturation (CD27+IgD− memory B cells of live CD19+ B cells): three healthy donors
Method: […]

PWP1 = assay: Competitive affinity-based chemoproteomics (UNC0965 matrix), PBMC cell extract; type: binding, human; conditions: 20 µM competitor, n=2
Method: (§1) described.[2] Lysates were precleared with bead slurry (100 μL) for 30 min at 4 °C and then treated with UNC0638 or UNC0737 (20 μM) or DMSO control for 30 min at 4 °C followed by incubation with affinity matrix for 2 h at 4 °C. Affinity matrices were washed with buffer A (5 mL) and proteins eluted with 100 μL of 2x Laemmli sample buffer, 100 mM DTT, in PBS and heating for 10 min at 90 °C.
(§2) Eluents (70 µL) were diluted in 0.1 M Tris (pH 7.8) to 200 µL, reduced with 5 mM DTT for 30 min at RT, and alkylated with 20 mM iodoacetamide for 30 min at RT in the dark. Proteins were precipitated by sequential addition of MeOH (600 µL), CHCl3 (150 µL) and H2O (450 µL), pelleted (17,000 × g, 5 min), washed with further MeOH (2 × 600 µL), and re-pelleted. Air dried pellets were resuspended in 50 μL 6 M urea (pH 7.8) by vortexing and then diluted with 250 μL H2O before adding 1 µg trypsin for overnight incubation at 37 °C. The digests were acidified with FA (1% v/v final concentration), desalted using SOLA HRP SPE Cartridges (Thermo Fisher), eluted with 69% v/v MeCN, 0.1% v/v FA in H2O (600 μL) and dried in vacuo. Dried peptides were stored at -20 °C before resuspension in 2% v/v MeCN, 0.1% v/v FA in H2O (20 μL) for LC-MS/MS analysis.
(§3) LC-MS/MS Data Acquisition
(§4) Digested samples were analysed by nano-UPLC–MS/MS using a Dionex Ultimate 3000 nano UPLC fitted with an EASY spray column (75 μm × 500 mm, 2 μm particle size, Thermo Scientific), coupled to an Orbitrap Q Exactive instrument. A 60 min gradient of 0.1% (v/v) formic acid in 5 % (v/v) DMSO to 0.1% (v/v) formic acid with 35% (v/v) acetonitrile in 5 % (v/v) DMSO at a flow rate of 250 nL min−1 was used. The instrument was operated in a data-dependant mode, with survey scans acquired at a resolution of 70,000 at 200 m/z and the 15 most abundant precursors selected for HCD fragmentation with an AGC target of […] ions.
(§5) Raw data was processed using MaxQuant[3] version 2.0.1.0 and the reference complete human proteome FASTA file (UniProt, downloaded 05.08.21). Label Free Quantification (LFQ) and Match Between Runs were selected; Cysteine carbamidomethylation was selected as a fixed modification, and methionine oxidation and asparagine deamidation as variable modifications. Default settings for identification and quantification were used. Specifically, a minimum peptide length of 7, a maximum of 2 missed cleavage sites, and a maximum of 5 labelled amino acids per peptide were allowed.
(§6) Through selection of the ‘trypsin/P’ general setting, peptide bond cleavage at arginine or lysine (followed by any amino acid) was considered during in silico digest of the reference proteome. […]
(§7) mode selected for both identification and quantification of proteins (razor peptides are uniquely assigned to protein groups and not to individual proteins).

PRCP = assay: as above; type: binding, human; conditions: 20 µM competitor, n=2
Method: as §1, §2, §3, §4, §5, §6, §7

CHKA = CHKA (Homo sapiens, UniProt P35790); assay: Competitive affinity-based chemoproteomics (UNC0965 matrix), MCF7 lysate; type: binding; set-up: endogenous in cells; host or cells: MCF7 whole cell lysate; conditions: 20 μM competitor; for FC vs DMSO (log2 competition), CHKA: MCF7 lysate, n=2; for competition for CHKA binding to affinity matrix: MCF7 lysates
Method: A-366 and UNC0638 were purchased from Tocris. ARIAD and V-11-07-11 were purchased from Wuxi Apptec. UNC0737 and UNC0965 were synthesised as previously described.[1] Hemicholinium-3 and pyruvate kinase/lactic dehydrogenase enzymes were purchased from Sigma Aldrich. Aqueous and organic solvents were MS-grade and acquired by Sigma Aldrich unless stated otherwise.
MDA-MB-231, MCF7 and HEK293 cells were cultured in DMEM (Gibco, #11965092) supplemented with 10% FBS. K562 were cultured in IMDM (Gibco, #12440053) supplemented with 10% FBS. HepG2 were cultured in MEM (Gibco, #11095080) supplemented with 10 % FBS. […]
cultured in McCoy’s 5A (Sigma, M8403) supplemented with 10 % FBS and 1x GlutaMAX (Gibco, #35050061). Cells were maintained at 37 °C in a humidified 5% CO2 atmosphere. Peripheral blood mononuclear cells (PBMC) were isolated from healthy blood donors by density centrifugation. […]
Chemical Proteomics Drug Pulldown
For lysate generation MCF7 cells were grown until approximately 80% confluency before being pelleted and washed with PBS. Cell pellets were subsequently lysed by addition of Buffer A (50 mM Tris pH 7.5, 0. 8% v/v NP-40, 5% v/v glycerol, 1.5 mM MgCl2, 100 mM NaCl, 25 mM NaF, 1 mM Na3VO4, 1 mM PMSF, 1 mM DTT, 10 μg mL−1 TLCK, 1 μg mL−1 Leupeptin, 1 μg mL−1 Aprotinin, 1 μg mL−1 soy bean trypsin) as previously described.[2]
For each pulldown condition, UNC0965 was coupled to 100 μL of UltraLink Immobilized Streptavidin Plus bead slurry (50% in isopropanol, GE Healthcare) to generate the affinity matrix as previously […]
as §1
Eluents (70 µL) were diluted in 0.1 M Tris (pH 7.8) to 200 µL, reduced with 5 mM DTT for 30 min at RT, and alkylated with 20 mM iodoacetamide for 30 min at RT in the dark. […]
Digested samples were analysed by nano-UPLC–MS/MS using a Dionex Ultimate 3000 nano UPLC fitted with an EASY spray column (75 μm × 500 mm, 2 μm particle size, Thermo Scientific), coupled to an Orbitrap Q Exactive instrument. […]
as §5, with “Specifically, a minimum peptide length of 7, a maximum of 2 missed cleavage sites, and a maximum of 5 labelled amino acids per peptide were allowed.” left out

Chain of CHKA (P35790 whole entry): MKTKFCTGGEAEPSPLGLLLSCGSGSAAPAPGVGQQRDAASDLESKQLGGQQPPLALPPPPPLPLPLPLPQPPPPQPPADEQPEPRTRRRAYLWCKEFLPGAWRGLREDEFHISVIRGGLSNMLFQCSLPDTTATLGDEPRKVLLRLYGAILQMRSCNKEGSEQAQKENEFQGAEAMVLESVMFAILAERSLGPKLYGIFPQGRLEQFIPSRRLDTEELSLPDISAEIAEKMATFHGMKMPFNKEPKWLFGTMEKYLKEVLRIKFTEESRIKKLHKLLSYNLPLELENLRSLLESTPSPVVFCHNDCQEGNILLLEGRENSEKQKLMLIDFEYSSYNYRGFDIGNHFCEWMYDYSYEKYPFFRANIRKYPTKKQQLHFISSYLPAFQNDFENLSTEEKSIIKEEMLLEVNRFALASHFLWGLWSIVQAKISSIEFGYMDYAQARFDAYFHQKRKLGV

Row | Compound | cell viability (live CD19+ B cells, flow cytometry) [1] | IgG secretion [1] | stimulation‐induced B cell maturation (CD27+IgD− memory B cells of live CD19+ B cells) [1] | FC vs DMSO (log2 competition), PWP1 (PWP1) | FC vs DMSO (log2 competition), PRCP (PRCP) | FC vs DMSO (log2 competition), CHKA (CHKA) | competition for CHKA binding to affinity matrix (CHKA)
1 | COc1cc2c(NC3CCN(C(C)C)CC3)nc(C3CCCCC3)nc2cc1OCCCN1CCCC1 [UNC0638] | not markedly affected | reduction of IgG secretion | reduce | -2.002 | -3.268 | -2.284 | shared off‐target
2 | COc1cc2c(N(C)C3CCN(C(C)C)CC3)nc(C3CCCCC3)nc2cc1OCCCN1CCCC1 [UNC0737] | not markedly affected | reduction of IgG secretion | reduce | -0.1275 | -0.4338 | -4.09 | shared off‐target; also recorded: even stronger competition

— article PMC11811597, “Phenomics‐Based Discovery of Novel Orthosteric Choline Kinase Inhibitors” (Angewandte Chemie (International Ed. in English), 2025)
